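Cells were grown in 96-well plates and exposed to each compound for 48 hours at five concentrations; endpoints were interpolated linearly between bracketing concentrations, or set to the highest concentration if not reached. GI50: concentration for 50% inhibition of growth. TGI denotes the concentration required for complete inhibition of growth.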
Experiments:
Test in all cases: growth of human tumour cells (NCI), 48 h
HOP-92 NSCLC = test system: HOP-92 NSCLC
EKVX NSCLC = test system: EKVX NSCLC
HOP-62 NSCLC = test system: HOP-62 NSCLC
UACC-62 melanoma = test system: UACC-62 melanoma
SNB-19 CNS = test system: SNB-19 CNS
M14 melanoma = test system: M14 melanoma
OVCAR-5 ovarian = test system: OVCAR-5 ovarian
COLO 205 colon = test system: COLO 205 colon
NCI-H23 lung = test system: NCI-H23 lung
NCI/ADR-RES ovarian = test system: NCI/ADR-RES ovarian

| Compound | GI50 (HOP-92 NSCLC) [µM] | TGI (HOP-92 NSCLC) [µM] | GI50 (EKVX NSCLC) [µM] | TGI (EKVX NSCLC) [µM] | GI50 (HOP-62 NSCLC) [µM] | TGI (HOP-62 NSCLC) [µM] | GI50 (UACC-62 melanoma) [µM] | TGI (UACC-62 melanoma) [µM] | GI50 (SNB-19 CNS) [µM] | TGI (SNB-19 CNS) [µM] | GI50 (M14 melanoma) [µM] | TGI (M14 melanoma) [µM] | GI50 (OVCAR-5 ovarian) [µM] | TGI (OVCAR-5 ovarian) [µM] | GI50 (COLO 205 colon) [µM] | TGI (COLO 205 colon) [µM] | GI50 (NCI-H23 lung) [µM] | TGI (NCI-H23 lung) [µM] | GI50 (NCI/ADR-RES ovarian) [µM] | TGI (NCI/ADR-RES ovarian) [µM] |
| --- | --- | --- | --- | --- | --- | --- | --- | --- | --- | --- | --- | --- | --- | --- | --- | --- | --- | --- | --- | --- |
| O=C(NCCN1CCOCC1)Nc1ccc(-c2cc3c(Nc4ccc(Oc5cccc(C(F)(F)F)c5)c(Cl)c4)ncnc3s2)cc1 | 1.66 | 7.43 | 2.27 | 8.61 | 1.46 | 5.93 | 1 | 2.27 | 2.41 | 8.52 | 1.16 | 3.24 | 1.66 | 6.32 | 1.25 | 2.95 | 1.51 | 5.76 | 6.74 | 19.9 |
| COc1cc(C2CC(c3ccc4c(c3)OCO4)=NN2C(C)=O)cc(OC)c1OC (stereo not drawn) | > 100 | > 100 | 3.13 | > 100 | 1.14 | > 100 | 0.493 | > 100 | 1.91 | > 100 | 0.536 | > 39.7 | 4.28 | > 100 | 0.466 | 2.6 | 1.81 | > 100 | 0.405 |  |
| O=C(O)C(Br)C(Br)c1ccccc1[N+](=O)[O-] (stereo not drawn) |  | > 100 |  | > 100 |  | > 100 |  | > 100 |  | > 100 |  | > 100 |  | > 100 |  | > 100 |  | > 100 |  | > 100 |
| CCCCCCNC(=O)Oc1ccc(/C(=C(\C)c2ccccc2)c2ccc(OCCN3CCCCC3)cc2)cc1 | 1.51 | 5.04 | 4.11 | 18 | 3.22 | 10.9 | 3.63 | 12.5 | 4.69 | 18.2 | 1.98 | 3.97 | 9.75 | 24.1 | 1.78 | 3.57 | 3.06 | 11.6 | 3.12 | 12.7 |
| COc1cccc(Cn2cc3c(c2)-c2oncc2CC3)c1 | 2.17 | 68.3 | 0.508 | > 77 | 0.528 | > 100 | 0.662 | > 88.8 | 0.543 | > 100 | 0.374 | > 48.2 | 0.693 | > 100 | 0.313 | 1.05 | 0.471 | > 80.7 | 0.317 |  |
| CCCCCCCCCCCCOC1C(C(COC2OC(C(O)CN3CCCCC3)C3OC(C)(C)OC23)NC(=O)Nc2ccccc2)OC2OC(C)(C)OC21 (stereo not drawn) | 6.86 | 19.7 | 14.4 | 30.2 | 16.1 | 32.9 | 15.9 | 31 | 18.2 | 44.5 | 7.75 | 19.4 | 18.5 | 34.3 | 3.86 | 16.8 | 17.9 | 37.1 | 15.3 | 33.3 |
| COc1ccc(C2C(c3ccccc3)C(=O)N2c2cc(OC)c(OC)c(OC)c2)cc1I (stereo not drawn) | 0.961 | > 100 | 0.658 | > 100 | 0.57 | > 100 | 0.458 | > 100 | 0.59 | > 100 | 0.301 | > 100 | 0.526 | > 100 | 0.228 | 0.648 | 0.623 | > 100 | 0.319 | > 100 |
| Oc1ccc(/C=N/Nc2nc3ccccc3s2)c(O)c1 | 4.46 | > 100 | 2.86 | > 100 | 3.43 | > 100 | 1.75 | 4.82 | 2.8 | > 100 | 1.38 | 12.1 | 2.59 | 21 | 3.11 | 21.3 | 3.03 | > 100 | 1.22 | > 100 |
| CS(=O)(=O)OCCN(CCOS(C)(=O)=O)c1ccc(C=Nc2ccc3oc(=O)ccc3c2)cc1 |  | 47.1 |  | 36.5 |  | 34.1 |  | 19.8 |  | 80.7 |  | 31.6 |  | 28.9 |  | 10.3 |  | 17.5 |  | 62.5 |
